Assay results published in EP0528583A1, “Isolation and structure of the cell growth inhibitory cycloheptapeptide axinastatin 1” (ARIZONA BOARD OF REGENTS, priority 1991, dated 1993).
Residues, ends and D or L forms follow the SMILES beside them.

Columns and labels:
[1] = system: P388 lymphocytic leukemia; test: In vivo P388 (PS) lymphocytic leukemia life extension, NCI protocol; parameters: species or system mice; conditions: in vivo P388 lymphocytic leukemia system; dose not given
Excerpt: (§1) The isolation and purification methods chosen can be monitored at each step by performing in-vitro and/or in-vivo antitumor tests as described by R. I. Geran, N.H. Greenberg, M. M. MacDonald, A.M. Schumacher and B. S. Abbot in Cancer Chemotherapy Rep., Part 3, Vol 3: 1-103 (1972); and by Schmidt, J. M.; Pettit, G. R. in Experientia 1978, 34: 659-660. Such tests include the determination of the concentration of active material required to inhibit the growth of tumor cells in culture, (e.g. the concentration required to inhibit growth by 50 percent or the E.D.₅₀) and of the dose of active material required to prolong the life of mice bearing transplanted tumors ("life extension").

[2] = system: NCI murine P388 lymphocytic leukemia cell line; test: P388 (PS system) lymphocytic leukemia cell growth inhibition in culture, NCI protocol; format: cell-based; conditions: concentration required to inhibit growth of tumor cells in culture by 50 percent
Excerpt: as §1

## CC(C)[C@@H]1NC(=O)[C@H](Cc2ccccc2)NC(=O)[C@@H]2CCCN2C(=O)[C@H](CC(N)=O)NC(=O)[C@H](C(C)C)NC(=O)[C@@H]2CCCN2C(=O)[C@H](C(C)C)NC1=O [axinastatin 1, cyclo (Asn-Pro-Phe-Val-Val-Pro-Val)] (cyclo(FVVPVNP))
[1]
  life extension: 20%
[2]
  PS ED₅₀: 0.21 µg/mL
